Test results from patent US20130034594A1, “FIBERS CONTAINING FERRATES AND METHODS” (BATTELLE MEMORIAL INSTITUTE, priority 2010, published 2013).

Legend:
[1] = Thermal storage stability under Army Regulation (AR) 70-38 test conditions; format: physicochemical
Description: Unexpectedly, unlike all peroxide materials, we found potassium ferrate(VI) to be thermally stable as defined by Army Regulation (AR) 70-38 test conditions. Therefore potassium ferrate(VI) was determined to be stable to storage for long periods, at least 98 days at 71° C., and at least 82 days under conditions of cycling daily from 23° C. to 71° C. and back again. […] In these tests, losses with time varied slightly with test vials ranging from <1% to 10% (±3%) loss respectively after the test periods given.

[2] = Thermal stability of sodium ferrate(VI) (temperature limit); format: physicochemical
Description: The ferrate fiber of the present invention can disperse the ferrate formulation mentioned above into one or more suitable polymers to produce the ferrate fiber. Broadly, a formulation of the ferrate is mixed/blended with at least one nonaqueous polymer, and then the mixture can be dispersed and cooled to solidify into the fiber of the present invention. The nonaqueous polymer is defined above. A conventional extrusion method can be used to co-extrude/disperse the ferrate/polymer mixture. Preferably, the polymer is in a liquid form before blending with the ferrate formulation. The polymer can be melted into a liquid polymer before blending. The ferrate is highly oxidative so it is normally not placed in contact with any high temperature organic polymer, nor is it co-extruded/dispersed with other polymers under a relatively high temperature using a conventional extrusion method. Such blending and co-extrusion might decompose the ferrate prematurely. […] Most suitable polymers can melt at a much lower temperature. Therefore, the ferrate(VI) can be blended and then co-extruded/dispersed with one or more melted liquid polymers without causing the ferrate to decompose prematurely even using a relatively vigorous conventional extrusion method.

stable to storage (time) ([1]; at 71° C., pure (80-100% analytical grade) or moderate purity (50-80% technical grade)) | stable to storage (time) ([1]; cycling daily from 23° C. to 71° C. and back again, pure or technical grade) | stable up to (temperature) [2] | Compound | estimated storage stability ([1]; estimated from the AR 70-38 results)
at least 98 days | at least 82 days |  | potassium ferrate(VI) | sufficiently stable for several years of storage
 |  | up to 270 °C | [Na+].[Na+].[O]=[Fe](=[O])([O-])[O-] [sodium ferrate(VI)] | 
